Data as given in ChEMBL document CHEMBL2177034, “Inhibition of hypoxia inducible factor-2 transcription: isolation of active modulators from marine sponges” (J Nat Prod, 2012).
Calls of active or inactive are those of the source. The calls are words filed in the database; no cut-off is given here.

Experiments:
[1] = Cytotoxicity against human SK-RC-28 cells expressing HIF1alpha after 2 days by XTT assay; format: functional, cell-based; conditions: 48 h
[2] = test system: 786-0; assay: Cytotoxicity against human 786-0 cells expressing HIF2alpha after 2 days by XTT assay; format: functional, cell-based; conditions: 786-0, 48 h
[3] = test system: total protein expression; assay: Inhibition of total protein expression in serum deprived human 786-0 cells at 20 uM after 48 hrs relative to control; format: cell-based; conditions: 786-0 cells
[4] = test system: 786-0; assay: Inhibition of HIF-mediated VEGFA protein expression in serum deprived human 786-0 cells at 21 uM after 48 hrs relative to control; format: cell-based
[5] = target: T1, Endothelial PAS domain-containing protein 1 (Homo sapiens, UniProt Q99814); assay: Inhibition of HIF2alpha in human 786-0 cells expressing truncated HIF1alpha assessed as reduction in luciferase activity after 24 hrs by reporter gene assay; format: cell-based
T1 sequence (Q99814 whole entry, the tested form may be a part): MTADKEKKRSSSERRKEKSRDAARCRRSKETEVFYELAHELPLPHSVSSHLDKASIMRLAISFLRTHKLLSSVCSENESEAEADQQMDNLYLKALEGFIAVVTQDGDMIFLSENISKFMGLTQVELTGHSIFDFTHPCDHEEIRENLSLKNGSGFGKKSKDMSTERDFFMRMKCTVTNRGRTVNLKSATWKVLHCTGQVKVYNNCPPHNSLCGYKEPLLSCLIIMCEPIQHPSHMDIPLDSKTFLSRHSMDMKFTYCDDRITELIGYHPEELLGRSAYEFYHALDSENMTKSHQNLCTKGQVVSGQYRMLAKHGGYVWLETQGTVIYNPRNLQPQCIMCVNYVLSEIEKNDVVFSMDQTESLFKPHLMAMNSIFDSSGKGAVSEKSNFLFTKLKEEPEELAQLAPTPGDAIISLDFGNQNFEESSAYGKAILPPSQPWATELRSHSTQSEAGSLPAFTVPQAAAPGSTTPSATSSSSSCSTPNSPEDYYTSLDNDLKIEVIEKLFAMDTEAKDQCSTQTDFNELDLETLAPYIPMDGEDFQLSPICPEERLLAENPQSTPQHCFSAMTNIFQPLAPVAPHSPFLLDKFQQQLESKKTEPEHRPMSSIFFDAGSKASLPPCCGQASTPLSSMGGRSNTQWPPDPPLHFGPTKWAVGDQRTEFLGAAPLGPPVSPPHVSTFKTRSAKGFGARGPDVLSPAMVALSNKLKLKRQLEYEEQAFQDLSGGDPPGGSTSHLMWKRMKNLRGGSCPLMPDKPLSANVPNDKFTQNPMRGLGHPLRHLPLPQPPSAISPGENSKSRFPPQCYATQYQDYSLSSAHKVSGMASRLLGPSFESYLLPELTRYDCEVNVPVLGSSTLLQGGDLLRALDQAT

[6] = Downregulation of actin mRNA expression in human SK-RC-28 cells expressing HIF2alpha at 21 uM after 48 hrs by RT-PCr analysis; format: ADME, cell-based
[7] = Downregulation of actin mRNA expression in human RCC4 cells expressing HIF1alpha and HIF2alpha at 21 uM after 48 hrs by RT-PCr analysis; format: ADME, cell-based; conditions: rcc4, 48 h
[8] = test system: 786-0; assay: Downregulation of actin mRNA expression in human […] at 21 uM after 48 hrs by RT-PCr analysis; format: ADME, cell-based; conditions: 786-0, 48 h
[9] = Downregulation of HIF2alpha mRNA expression in human SK-RC-28 cells at 21 uM after 48 hrs by RT-PCR analysis; format: functional, cell-based
[10] = Downregulation of HIF1alpha mRNA expression in human SK-RC-28 cells at 21 uM after 48 hrs by RT-PCR analysis; format: functional, cell-based
[11] = Downregulation of CCND1 mRNA expression in human SK-RC-28 cells at 21 uM after 48 hrs by RT-PCR analysis; format: functional, cell-based
[12] = Downregulation of GLUT1 mRNA expression in human SK-RC-28 cells at 21 uM after 48 hrs by RT-PCR analysis; format: functional, cell-based
[13] = Downregulation of TGFalpha mRNA expression in human SK-RC-28 cells at 21 uM after 48 hrs by RT-PCR analysis; format: functional, cell-based
[14] = target: Hypoxia-inducible factor 1-alpha (Homo sapiens) (UniProt Q16665); assay: Inhibition of HIF1alpha in human SK-RC-28 cells assessed as reduction in VEGFA expression at 21 uM after 48 hrs by RT-PCR analysis; format: cell-based
Hypoxia-inducible factor 1-alpha (Homo sapiens), sequence (Q16665 whole entry, looked up): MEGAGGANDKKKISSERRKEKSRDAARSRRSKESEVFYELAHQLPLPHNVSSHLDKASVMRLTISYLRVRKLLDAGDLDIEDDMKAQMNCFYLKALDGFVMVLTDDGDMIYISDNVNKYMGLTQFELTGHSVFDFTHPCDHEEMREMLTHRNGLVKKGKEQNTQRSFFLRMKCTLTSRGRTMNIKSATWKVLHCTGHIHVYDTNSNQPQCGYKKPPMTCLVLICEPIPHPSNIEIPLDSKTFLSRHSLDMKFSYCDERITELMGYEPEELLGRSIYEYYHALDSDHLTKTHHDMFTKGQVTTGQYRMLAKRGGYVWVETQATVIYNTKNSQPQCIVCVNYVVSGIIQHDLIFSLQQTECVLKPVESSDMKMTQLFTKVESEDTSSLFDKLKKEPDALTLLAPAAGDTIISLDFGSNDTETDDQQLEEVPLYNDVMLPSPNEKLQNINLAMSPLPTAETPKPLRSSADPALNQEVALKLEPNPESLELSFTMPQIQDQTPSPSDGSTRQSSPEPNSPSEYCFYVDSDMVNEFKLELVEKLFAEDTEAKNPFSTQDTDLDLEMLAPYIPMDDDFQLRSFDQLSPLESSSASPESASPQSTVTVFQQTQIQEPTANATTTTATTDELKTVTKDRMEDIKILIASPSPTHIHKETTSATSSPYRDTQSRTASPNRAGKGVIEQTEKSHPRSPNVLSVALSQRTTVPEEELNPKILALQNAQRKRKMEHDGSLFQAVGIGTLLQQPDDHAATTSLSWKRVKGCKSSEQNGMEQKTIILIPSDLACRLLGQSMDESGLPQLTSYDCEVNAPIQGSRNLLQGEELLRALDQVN

[15] = target: Hypoxia-inducible factor 1-alpha (Homo sapiens) (UniProt Q16665); assay: Inhibition of HIF1alpha in human SK-RC-28 cells assessed as reduction in carbonic anhydrase 9 expression at 21 uM after 48 hrs by RT-PCR analysis; format: cell-based
[16] = Downregulation of HIF2alpha mRNA expression in human RCC4 cells at 21 uM after 48 hrs by RT-PCR analysis; format: functional, cell-based
[17] = Downregulation of HIF1alpha mRNA expression in human RCC4 cells at 21 uM after 48 hrs by RT-PCR analysis; format: functional, cell-based
[18] = target: Hypoxia inducible factors; HIF-1-alpha, HIF-2-alpha (Homo sapiens) (UniProt Q16665+Q99814); assay: Inhibition of HIF1alpha/2alpha in human RCC4 cells assessed as reduction in VEGFA mRNA expression at 21 uM after 48 hrs by RT-PCR analysis; format: cell-based
[19] = target: T1, Endothelial PAS domain-containing protein 1; assay: Inhibition of HIF2alpha in human RCC4 cells coexpressing HIF1alpha assessed as reduction in CCND1 mRNA expression at 21 uM after 48 hrs by RT-PCR analysis; format: cell-based
[20] = target: T1, Endothelial PAS domain-containing protein 1; assay: Inhibition of HIF2alpha in human RCC4 cells coexpressing HIF1alpha assessed as reduction in GLUT1 mRNA expression at 21 uM after 48 hrs by RT-PCR analysis; format: cell-based
[21] = target: T1, Endothelial PAS domain-containing protein 1; assay: Inhibition of HIF2alpha in human RCC4 cells coexpressing HIF1alpha assessed as reduction in TGFalpha mRNA expression at 21 uM after 48 hrs by RT-PCR analysis; format: cell-based
[22] = target: Hypoxia-inducible factor 1-alpha (Homo sapiens) (UniProt Q16665); assay: Inhibition of HIF1alpha in human RCC4 cells coexpressing HIF2alpha assessed as decrease in carbonic anhydrase 9 mRNA expression at 21 uM after 48 hrs by RT-PCR analysis; format: cell-based
[23] = test system: 786-0; assay: Downregulation of HIF2alpha mRNA expression in human 786-0 cells at 21 uM after 48 hrs by RT-PCR analysis; format: functional, cell-based
[24] = test system: 786-0; assay: Downregulation of HIF1alpha mRNA expression in human 786-0 cells at 21 uM after 48 hrs by RT-PCR analysis; format: functional, cell-based
[25] = target: T1, Endothelial PAS domain-containing protein 1; assay: Inhibition of HIF2alpha in human 786-0 cells assessed as reduction in VEGFA expression at 21 uM after 48 hrs by RT-PCR analysis; format: cell-based
[26] = target: T1, Endothelial PAS domain-containing protein 1; assay: Inhibition of HIF2alpha in human 786-0 cells assessed as reduction in CCND1 mRNA expression at 21 uM after 48 hrs by RT-PCR analysis; format: cell-based
[27] = target: T1, Endothelial PAS domain-containing protein 1; assay: Inhibition of HIF2alpha in human 786-0 cells assessed as reduction in GLUT1 mRNA expression at 21 uM after 48 hrs by RT-PCR analysis; format: cell-based
[28] = target: T1, Endothelial PAS domain-containing protein 1; assay: Inhibition of HIF2alpha in human 786-0 cells assessed as reduction in TGFalpha mRNA expression at 21 uM after 48 hrs by RT-PCR analysis; format: cell-based
[29] = test system: 786-0; assay: Downregulation of carbonic anhydrase 9 expression in human 786-0 cells at 21 uM after 48 hrs by RT-PCR analysis; format: functional, cell-based

Question: With `C1=C/[C@H]2[C@@H]3CCCC[C@H]3C[C@@H]2NCCCN[C@@H]2C[C@@H]3CCCC[C@H]3[C@@H]2/C=C/1` [HALICLONADIAMINE] as the molecule, how does the IC50 [1] read?
Answer: 16.1 µM

Question: And the IC50 [2]?
Answer: 15.1 µM

Question: What about the inhibition at 48 h, 20 µM [3] of the same molecule?
Answer: 20%

Question: And the inhibition [4]?
Answer: 50%

Question: And the EC50 [5]?
Answer: 14.8 µM

Question: What about the Activity [6] of the same molecule?
Answer: Toxic

Question: What about the Activity [7] of the same molecule?
Answer: Toxic

Question: What about the Activity [8] of the same molecule?
Answer: Toxic

Question: And the Activity [9]?
Answer: Active

Question: What about the Activity [10] of the same molecule?
Answer: Active

Question: What about the Activity [11] of the same molecule?
Answer: Active

Question: And the Activity [12]?
Answer: Active

Question: And the Activity [13]?
Answer: Active

Question: And the inhibition [14]?
Answer: Active

Question: And the inhibition [15]?
Answer: Active

Question: And the Activity [16]?
Answer: Active

Question: What about the Activity [17] of the same molecule?
Answer: Active

Question: And the inhibition [18]?
Answer: Active

Question: And the inhibition [19]?
Answer: Active

Question: And the inhibition [20]?
Answer: Active

Question: What about the inhibition [21] of the same molecule?
Answer: Active

Question: What about the inhibition [22] of the same molecule?
Answer: Active

Question: And the Activity [23]?
Answer: Active

Question: And the Activity [24]?
Answer: Active

Question: And the inhibition [25]?
Answer: Active

Question: And the inhibition [26]?
Answer: Active

Question: What about the inhibition [27] of the same molecule?
Answer: Active

Question: What about the inhibition [28] of the same molecule?
Answer: Active

Question: And the Activity [29]?
Answer: Active
